In patent publication US10907212B2, “Inhibitors of cell adhesion” (Regents of the University of Minnesota, priority 2016, dated 2021):
Where no end group is shown, it is not given here.

What was measured:
[1] = test system: nectin 4 protein on NIH:OVCAR-5 cells; assay: Effect of peptides on anti-Nectin-4 antibody binding to cells as determined by flow cytometry; type: cell-based, human; conditions: for IgG MFI: IgG control primary antibody; for nectin-4 antibody binding compared to untreated control cells (in words): flow cytometry; for Flow binding: summary table, Nectin-4 antibody binding relative to control = 100
Procedure: Confluent monolayers of cells were detached from 75 cm^2 tissue culture flasks using Accutase cell dissociation buffer (Innovative Cell Technologies, San Diego, Calif.), washed, and labeled with mouse IgG or mAbs against Nectin-4 or Nectin-1 (2.5 μg/10^6 cells) in Flow Buffer [phosphate buffered saline (PBS) containing 2.5% newborn calf serum and 0.02% sodium azide] for 30 min at 4° C.. Cells were washed and incubated with goat anti-mouse IgG F(ab′)2 (Jackson ImmunoResearch, West Grove, Pa.), then washed again and incubated with streptavidin-allophycocyanin conjugate (Jackson ImmunoResearch, West Grove, Pa.) for 30 min each. Cells were washed and fixed in Flow Buffer containing 1% formaldehyde and analyzed in the University of Minnesota Flow Cytometry Resource with a BD Accuri™ C6 flow cytometer (BD Biosciences, San Jose, Calif.) using the Accuri™ software.
Briefly, NIH:OVCAR-5 cells that natively express a moderate amount of nectin 4 protein were incubated for 30 minutes in 150 μg/mL of soluble peptide in DMSO. After incubation, the cells were washed, and then triple antibody stained using mouse anti-nectin 4 (or IgG control) primary antibody, biotinylated goat anti-mouse secondary antibody, and streptavidin APC tertiary antibody. Finally, utilizing the University of Minnesota flow core's Accuri C6 flow cytometer, the relative antibody binding affinity for control and peptide-treated samples was quantitated and compared. Data was collected for each of the 57 peptides generated.

[2] = test system: ovarian cancer cell aggregation and spheroid formation; assay: Spheroid assay for peptides (visual scale +1 to +5); type: cell-based, human; conditions: visual scale of +1 to +5
Procedure: Spheroids were formed from the NIH:OVCAR5 cell lines described above using the liquid overlay method. One milliliter of a single cell suspension was seeded at a concentration of 50,000 cells/ml in OptiMEM® media, into 24-well tissue culture plates coated with 0.5% Seakem agarose (in complete RPMI-1640). Plates were incubated at 37° C. in a humidified incubator with 5% CO2. At various time points up to 5 days, the plates were removed from the incubator and the spheroids were photographed with a Nikon CoolPix digital camera mounted on an Olympus CK2 inverted microscope with a 4× objective. The size of the spheroids was determined using the measure tool in Adobe Photoshop. The largest spheroids were quantified (20-90 spheroids/well), in a minimum of 8 wells, for a total of >300 spheroids per cell type.
The clinical relevance is that by blocking the formation of spheroids, the cells will be more sensitive to chemotherapy (which targets the single cells that proliferate more rapidly than spheroids).
The spheroid assay for peptides 1-30 were scored using a visual scale of +1 to +5. The controls were scored at +2 (24 hrs) and +4 (48 hrs). […] It may be harder to visually assess the size at 24 hours, since the spheroids are relatively small, but and perhaps some of the peptides are affecting cell division, and that is why the spheroids are smaller than the controls at 48 hours, but not 24 hrs (this can be easily assayed with an MTT assay).

[3] = Run One, 150 μg/mL peptide, 30 minutes, Control 1 = 15,015
[4] = Run One, 150 μg/mL peptide, 30 minutes, Control 1 = 1,670
[5] = Run One, antibody binding relative to Control 1 = 100.00
[6] = Run Three, 150 μg/mL peptide, 30 minutes, Control 3 = 13,070.20
[7] = Run Three, antibody binding relative to Control 3 = 100.00
[8] = Run Five, 150 μg/mL peptide, 30 minutes, Control 5 = 17,768.90
[9] = Run Five, Control 5 = 2.142155332
[10] = Run Five, antibody binding relative to Control 5 = 100

Row | Substance | N4 MFI [1, 6] | N4 MFI/IgG MFI ([1]; Run Three, Control 3 = 9.83) | IgG MFI ([1]; Run Three, Control 3 = 1330) | nectin-4 antibody binding, percent of control [1, 7] | nectin-4 antibody binding compared to untreated control cells (in words) ([1]; 150 μg/mL peptide) | N4 MFI [1, 8] | N4 MFI/IgG MFI [1, 9] | IgG MFI ([1]; Run Five, Control 5 = 8,294.87) | nectin-4 antibody binding, percent of control [1, 10] | further results
1 | GQGLTLAASCTAEG-NH2 (listed as Homo sapiens) [Peptide 12] | – | – | – | – | – | – | – | – | – | N4 MFI [1, 3]: 11,052; IgG MFI [1, 4]: 2,827; N4 MFI/IgG MFI ([1]; Run One, Control 1 = 8.99): 3.91; nectin-4 antibody binding, percent of control [1, 5]: 61.63
2 | LSRLELEDEGVYIC-NH2 (listed as Homo sapiens) [Peptide 37] | 46,393.69 | 11.38 | 4078 | 360.43 | – | – | – | – | – | –
3 | NGKPPSVVSWETRL-NH2 (listed as Homo sapiens) [Peptide 42] | – | – | – | – | – | – | – | – | – | N4 MFI ([1]; Run Four, 150 μg/mL peptide, 30 minutes, Control 4 = 9,631.58): 9,416.50; N4 MFI/IgG MFI ([1]; Run Four, Control 4 = 9.387504873): 7.497; IgG MFI ([1]; Run Four, Control 4 = 1,026): 1256; nectin-4 antibody binding, percent of control ([1]; Run Four, antibody binding relative to Control 4 = 100): 94.83
4 | NVAIYNPSMGVSVL-NH2 (listed as Homo sapiens) [Peptide 34] | 14,542.93 | 9.77 | 1489 | 111.19 | increased nectin-4 antibody binding | – | – | – | – | Flow binding [1]: 112%
5 | NYSLAGTYICEATN-NH2 (listed as Homo sapiens) [Peptide 53] | – | – | – | – | – | 40,909.47 | 1.37 | 29,864.47 | 116.6 | –
6 | PAGELETSDVVTVV-NH2 (listed as Homo sapiens) [Peptide 1] | – | – | – | – | reduction in nectin-4 antibody binding | – | – | – | – | N4 MFI [1, 3]: 2,085; IgG MFI [1, 4]: 1,529; N4 MFI/IgG MFI ([1]; Run One, Control 1 = 8.99): 1.36; nectin-4 antibody binding, percent of control [1, 5]: 4.17
7 | QRITHILHVSFLAE-NH2 (listed as Homo sapiens) [Peptide 18] | – | – | – | – | – | – | – | – | – | Spheroid-24 ([2]; 24 hrs, Control = 2): 3; Spheroid-48 ([2]; 48 hrs, Control = 4): 5
8 | TNPIGTRSGQVEVN-NH2 (listed as Homo sapiens) [Peptide 54] | – | – | – | – | – | 19,706.27 | 2.253 | 8,747.26 | 115.7 | –
9 | TNWIEGTQAVLRAKKGQ-NH2 (listed as Homo sapiens) [Peptide 40] | 10,121.20 | 7.11 | 1423 | 74.09 | – | – | – | – | – | –
10 | TWQKSTNGSKQNV-NH2 (listed as Homo sapiens) [Peptide 33] | 10,425.01 | 8.31 | 1255 | 78.11 | – | – | – | – | – | –
11 | VLAPYRERVEFLRP-NH2 (listed as Homo sapiens) [Peptide 35] | 15,767.33 | 8.59 | 1835 | 118.67 | increased nectin-4 antibody binding | – | – | – | – | Flow binding [1]: 119%
12 | VNITEFPYTPSPPEHGRRA-NH2 (listed as Homo sapiens) [Peptide 55] | – | – | – | – | – | 19,498.24 | 2.29 | 8,512.75 | 116 | –
13 | WTTLNGSLPKGVEA-NH2 (listed as Homo sapiens) [Peptide 51] | – | – | – | – | reduction in nectin-4 antibody binding | 14,202.55 | 1.539 | 9,230.44 | 52.48 | Flow binding [1]: 53%
